# Measured values from article PMC4492822 (EMBO Molecular Medicine, 2015).
# pIC50: −log10 of the molar value.
# Legend:
# [1] = tested on: lung cancer cell lines (A549, H1299, H460, H23, and H196); experiment: Combination experiments with chemotherapy; assay type: cell-based
# H196 = experiment: Annexin V / PI flow cytometry, 72 h; assay type: cell-based
# Method: (§1) Histograms depicting early apoptosis (Annexin V positive) and late apoptosis (PI positive) in cells treated with the indicated amounts of RK-33. Cells were either treated with DMSO (controls) or IC50 and IC75 amounts of RK-33. After 72 hours incubation, cells were harvested and stained for Annexin V and PI and analyzed by flow cytometry.
# H460 = experiment: Annexin V / PI flow cytometry, 72 h; assay type: cell-based
# Method: as §1
# H23 = experiment: Annexin V / PI flow cytometry, 72 h; assay type: cell-based
# Method: as §1
# H1299 = experiment: Annexin V / PI flow cytometry, 72 h; assay type: cell-based
# Method: as §1
# H358 = experiment: Annexin V / PI flow cytometry, 72 h; assay type: cell-based
# Method: as §1
# H1299-DR-GFP cells = experiment: Homologous recombination reporter assay; assay type: cell-based
# Method: (§2) NHEJ was assessed by the functional reporter system H1299-EJ, provided by E Dikomey. […] When these sites are incised by I-SceI, the artificial start codon is removed creating a DSB. Repair of this DSB by NHEJ restores GFP expression, so that cells capable for NHEJ can be identified by their GFP fluorescence intensity (Kriegs et al, [2010]). H1299.EJ cells were plated in a 6-well plate (1 × 10^5 cell/well) and treated with 4–6 μM RK-33. The following day, cells were transfected (in duplicates) with 1–2 μg of pSceI or pEGFP construct using TransIT-LT1 (Mirus, Madison, WI, USA) in serum-free media (Opti-MEM, Invitrogen, Carlsbad, CA, USA). Media was replaced after 4–6 h with complete media. Subsequently, cells were harvested by trypsinization, washed in PBS, and resuspended in 0.5 ml PBS. NHEJ activity was measured on a FACScan I instrument and analyzed on FlowJo software. Recombination frequency was calculated as ((% pSceI − % negative control) / % pEGFP). H1299-DR-GFP cells, provided by RG Bristow, were used to measure homologous recombination similarly as described above (Chan et al, [2008]).
# H1299 cells = experiment: Cell cycle analysis by flow cytometry; assay type: cell-based; settings: 0, 2, 4, and 6 μM, dose-dependent
# Method: A549 and H1299 cells were plated at 1 × 10^5 cells per well of a 6-well plate. Cell cycle was carried out as previously described (Vesuna et al, [2012]). Briefly, cells were trypsinized 24 h after plating and fixed in 70% ethanol overnight at −20°C. Fixed cells were washed with PBS and resuspended in DNA-staining solution (5 μg/ml propidium iodide, 0.5 mg/ml RNase A) for 1 h at room temperature. Cell cycle acquisition was performed on a FACScan I or FACSCalibur instrument (BD Biosciences, San Jose, CA, USA). Independent experiments were repeated three times. Data were analyzed using FlowJo software (Tree Star Inc., Ashland, OR, USA).
# H1299.EJ cells = experiment: Non-homologous end-joining reporter assay; assay type: cell-based; settings: 4–6 μM
# Method: as §2
# A549 cells = experiment: Immunoblotting of cell cycle, apoptosis, MAPK and DNA repair proteins; assay type: cell-based, human
# Method: Cell lysate was prepared with TB buffer method. For immunoblotting, ~25 μg protein was loaded on 10% SDS–PAGE gels. […] The blots were developed with clarity Western ECL (Bio-Rad, Hercules, CA, USA) and imaged with G:BOX Chemi XR5 (Syngene, Frederick, MD, USA).
# [2] = tested on: A549, H1299, H23, and H460; experiment: MTS viability assay, 72 h, lines with high DDX3 expression; assay type: cell-based; settings: range over A549, H1299, H23, H460
# Method: Proliferation was determined by counting cancer cells over time. Cells were seeded at 7.5 × 10^4 cells/well and counted daily with a TC10 automated cell counter (Bio-Rad, Hercules, CA, USA) at least three times. Viability of cancer cells was determined by MTS assay (CellTiter 96® AQueous One Solution, Promega, Madison, WI, USA) as described by the manufacturer. Briefly, 800–2,000 cells were allowed to attach overnight in a 96-well plate, treated with different concentrations of RK-33 and kept for 72 h. MTS reagent was kept for 2 h. Each experiment was repeated a minimum of three independent times.
# [3] = molecular target: Ded1p (yeast homolog of DDX3) (Saccharomyces cerevisiae, UniProt P06634); experiment: RNA helicase (unwinding) assay; assay type: biochemical; settings: Ded1p 80 nM, 100 μM ATP; 50, 100, 200 nM tested
# Sequence of Ded1p (yeast homolog of DDX3) (P06634 whole entry): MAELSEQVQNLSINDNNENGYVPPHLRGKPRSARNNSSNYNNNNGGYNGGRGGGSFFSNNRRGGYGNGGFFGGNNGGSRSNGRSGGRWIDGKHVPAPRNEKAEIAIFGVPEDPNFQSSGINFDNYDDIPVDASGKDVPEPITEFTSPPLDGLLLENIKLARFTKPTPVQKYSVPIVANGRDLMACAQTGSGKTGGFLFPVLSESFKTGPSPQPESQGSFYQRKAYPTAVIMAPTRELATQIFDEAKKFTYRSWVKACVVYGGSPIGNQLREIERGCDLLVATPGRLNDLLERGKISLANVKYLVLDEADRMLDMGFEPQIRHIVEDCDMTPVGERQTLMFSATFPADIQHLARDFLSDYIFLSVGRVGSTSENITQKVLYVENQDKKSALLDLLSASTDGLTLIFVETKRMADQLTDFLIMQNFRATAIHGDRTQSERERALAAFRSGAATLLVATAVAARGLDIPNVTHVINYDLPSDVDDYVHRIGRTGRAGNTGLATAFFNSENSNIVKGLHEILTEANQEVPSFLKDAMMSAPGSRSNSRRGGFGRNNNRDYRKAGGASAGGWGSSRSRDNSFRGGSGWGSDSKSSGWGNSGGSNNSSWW
# Method: The RNA helicase assay was performed as described earlier (Sengoku et al, [2006]) with a few modifications. Briefly, RNA oligomers R41 (unlabeled 41 nt) 5′-[…]-[…]-3′ and R13 (FAM-labeled 13 nt) 5′-[…]-3′ were annealed to form […] RNA duplexes and incubated with R13C (unlabeled 13-nt quencher RNA complementary to R13) 5′-[…]-3′, along with Ded1p protein (80 nM), 100 μM ATP, and […] RNasin (Promega, Madison, WI, USA) in reaction buffer containing 50 mM Tris, pH 7.8, 2 mM MgCl2, 3% glycerol, and 1 mM DTT for various times at room temperature. Reactions were stopped after 30-min incubation at room temperature with stop solution containing proteinase K (1 mg/ml) and SDS (0.6%). Reactions were loaded on acrylamide gels and bands visualized using a Typhoon scanner (GE Healthcare, Piscataway, NJ, USA).
# [4] = 7.5 uM, lower line, first value
# [5] = 7.5 uM, lower line, second value
substance,measurement,setting,value
"diimidazo[4,5-d:4′,5′-f]-[1,3]diazepine [RK-33]",synergy of RK-33 + cisplatin,[1],did not observe significant synergy
same,synergy of RK-33 + paclitaxel,[1],did not observe significant synergy
same,cells in gate of Annexin V/PI plot,"H196; 3 uM, lower value of panel",43.3
same,cells in gate of Annexin V/PI plot,"H196; 3 uM, upper value of panel",52.7
same,cells in gate of Annexin V/PI plot,"H196; 4.5 uM, lower value of panel",36.6
same,cells in gate of Annexin V/PI plot,"H196; 4.5 uM, upper value of panel",60.9
same,cells in gate of Annexin V/PI plot,"H460; 6.5 uM, lower value of panel",62
same,cells in gate of Annexin V/PI plot,"H460; 6.5 uM, upper value of panel",25.6
same,cells in gate of Annexin V/PI plot,"H460; 9 uM, lower value of panel",50.1
same,cells in gate of Annexin V/PI plot,"H460; 9 uM, upper value of panel",34.7
same,cells in gate of Annexin V/PI plot,"H23; 5 uM, lower line, first value",30.3
same,cells in gate of Annexin V/PI plot,"H23; 5 uM, lower line, second value",28.2
same,cells in gate of Annexin V/PI plot,"H23; 5 uM, upper value of panel",39
same,cells in gate of Annexin V/PI plot,H23; [4],17.1
same,cells in gate of Annexin V/PI plot,H23; [5],18.8
same,cells in gate of Annexin V/PI plot,"H23; 7.5 uM, upper value of panel",60.4
same,cells in gate of Annexin V/PI plot,H1299; [4],40.4
same,cells in gate of Annexin V/PI plot,H1299; [5],12.6
same,cells in gate of Annexin V/PI plot,"H1299; 7.5 uM, upper value of panel",33.7
same,cells in gate of Annexin V/PI plot,"H1299; 13 uM, lower line, first value",36
same,cells in gate of Annexin V/PI plot,"H1299; 13 uM, lower line, second value",7.3
same,cells in gate of Annexin V/PI plot,"H1299; 13 uM, upper value of panel",41.5
same,cells in gate of Annexin V/PI plot,"H358; 11 uM, lower line, first value",26.6
same,cells in gate of Annexin V/PI plot,"H358; 11 uM, lower line, second value",31.9
same,cells in gate of Annexin V/PI plot,"H358; 11 uM, upper value of panel",34.9
same,cells in gate of Annexin V/PI plot,"H358; 16 uM, lower line, first value",26.8
same,cells in gate of Annexin V/PI plot,"H358; 16 uM, lower line, second value",26.5
same,cells in gate of Annexin V/PI plot,"H358; 16 uM, upper value of panel",40.8
same,HR activity,H1299-DR-GFP cells,no changes in HR activity
same,cell cycle effect,H1299 cells,G1 arrest
same,reduction of NHEJ,H1299.EJ cells,38%
same,DNA repair proteins ATR and XRCC4,"A549 cells; 6 μM for 4 h, then 5 Gy",decrease of ATR but not XRCC4
same,phosphorylated ERK2 and ERK1,"A549 cells; 7.5 μM or 10 μM, 24 h",reduction of phosphorylated ERK2 and ERK1
same,caspase cleavage,A549 cells; 10 μM,cleavage of caspases 7 and 9
same,cyclin D1 protein,"A549 cells; 10 μM, especially evident 2 h after treatment",substantial reduction of cyclin D1
same,pIC50,[2],5.08 to 5.36
same,concentration from which unwinding activity is reduced (dose-dependent),[3],50 nM
